Laboratory results from US20250326744A1, “PIPERAZINE DERIVATIVE OR SALT THEREOF, AND PHARMACEUTICAL COMPOSITION” (priority 2022, published 2025).
Counter-ions that a name gives are not always drawn.

Legend:
mexB (PA) strain = assay: Combinational effect with antibacterial agent against Pseudomonas aeruginosa (Test Examples 2 and 4): mexB (PA) strain with LVFX, TC or AZT at 1/4 MIC, EC99; type: cell-based; settings: mexB (PA) strain, Test Example 4; for EC99, combinational effect with AZT, mexB (PA): combined with AZT at 1/4 MIC; for EC99, combinational effect with LVFX, mexB (PA): combined with LVFX at 1/4 MIC; for EC99, combinational effect with TC, mexB (PA): combined with TC at 1/4 MIC
How it was run: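 EC99 denotes the minimum test-compound concentration (range 0–800 μM) that suppresses ≥99% of growth, measured by OD595, when combined with ¼ MIC levofloxacin (LVFX), tetracycline or aztreonam. The efflux-pump mutant mexB (PA), expressing mainly MexAB-OprM, was inoculated at 10^4–5 CFU/well in CAMHB for 16–20 h.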

S-3769 strain = assay: Combinational effect with antibacterial agent against Pseudomonas aeruginosa (Test Examples 2 and 4): S-3769 strain with AMK or GM at 1/4 MIC, EC99; type: cell-based; settings: S-3769 strain, Test Example 4; for EC99, combinational effect with AMK, S-3769 strain: combined with AMK at 1/4 MIC; for EC99, combinational effect with GM, S-3769 strain: combined with GM at 1/4 MIC
How it was run: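 EC99, the lowest test-compound concentration inhibiting growth by ≥99% (OD595), was measured with aminoglycoside AMK or GM held at ¼ MIC. Strain S-3769, a MexY-overexpressing clinical isolate, was cultured in CAMHB at 10^4 to 5 CFU/well for 16–20 h; compound range 0–800 μM.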

Row | Compound | EC99, combinational effect with AZT, mexB (PA) (mexB (PA) strain) | EC99, combinational effect with LVFX, mexB (PA) (mexB (PA) strain) | EC99, combinational effect with TC, mexB (PA) (mexB (PA) strain) | EC99, combinational effect with AMK, S-3769 strain (S-3769 strain) | EC99, combinational effect with GM, S-3769 strain (S-3769 strain)
1 | CSc1ccc(O)cc1CN1CCN(C(=O)[C@H](N)C2CCN(CCc3cc(Cl)ccc3-c3ccccc3)CC2)CC1 [Example 587, Hydrochloride of (R)-2-amino-2-(1-(2-(4-chloro-[1,1-biphenyl]-2-yl)ethyl)piperidin-4-yl)-1-(4-(5-hydroxy-2-(methylthio)benzyl)piperazin-1-yl) ethan-1-one] | S (EC99≤12.5 μM) | S (EC99≤12.5 μM) | S (EC99≤12.5 μM) | A (12.5 μM<EC99≤25 μM) | A (12.5 μM<EC99≤25 μM)
2 | N[C@@H](C(=O)N1CCN(Cc2c(O)cccc2C(F)(F)F)CC1)C1CCN(CCc2cc(Cl)ccc2-c2ccccc2)CC1 [Example 588, Hydrochloride of (R)-2-amino-2-(1-(2-(4-chloro-[1,1-biphenyl]-2-yl)ethyl)piperidin-4-yl)-1-(4-(2-hydroxy-6-(trifluoromethyl)benzyl)piperazin-1-yl) ethan-1-one] | B (25 μM<EC99≤100 μM) | A (12.5 μM<EC99≤25 μM) | A (12.5 μM<EC99≤25 μM) | A (12.5 μM<EC99≤25 μM) | A (12.5 μM<EC99≤25 μM)
3 | CCSc1ccc(O)cc1CN1CCN(C(=O)[C@H](N)C2CCN(CCc3cc(Cl)ccc3-c3ccccc3)CC2)CC1 [Example 589, (R)-2-amino-2-(1-(2-(4-chloro-[1,1′-biphenyl]-2-yl)ethyl)piperidin-4-yl)-1-(4-(2-(ethylthio)-5-hydroxybenzyl)piperazin-1-yl)ethan-1-one] | S (EC99≤12.5 μM) | S (EC99≤12.5 μM) | S (EC99≤12.5 μM) | S (EC99≤12.5 μM) | S (EC99≤12.5 μM)
4 | CSc1cccc(O)c1CN1CCN(C(=O)[C@H](N)C2CCN(CCc3cc(Cl)ccc3-c3ccccc3)CC2)CC1 [Example 590, Hydrochloride of (R)-2-amino-2-(1-(2-(4-chloro-[1,1-biphenyl]-2-yl)ethyl)piperidin-4-yl)-1-(4-(2-hydroxy-6-(methylthio)benzyl)piperazin-1-yl) ethan-1-one] | S (EC99≤12.5 μM) | S (EC99≤12.5 μM) | S (EC99≤12.5 μM) | A (12.5 μM<EC99≤25 μM) | A (12.5 μM<EC99≤25 μM)
5 | CCSc1cccc(O)c1CN1CCN(C(=O)[C@H](N)C2CCN(CCc3cc(Cl)ccc3-c3ccccc3)CC2)CC1 [Example 591, Hydrochloride of (R)-2-amino-2-(1-(2-(4-chloro-[1,1-biphenyl]-2-yl)ethyl)piperidin-4-yl)-1-(4-(2-(ethylthio)-6-hydroxybenzyl)piperazin-1-yl)ethan-1-one] | S (EC99≤12.5 μM) | S (EC99≤12.5 μM) | S (EC99≤12.5 μM) | B (25 μM<EC99≤100 μM) | B (25 μM<EC99≤100 μM)
6 | CSc1ccccc1CN1CCN(C(=O)[C@H](N)C2CCN(CCc3cc(Cl)ccc3-c3ccccc3O)CC2)CC1 [Example 592, Hydrochloride of (R)-2-amino-2-(1-(2-(4-chloro-2′-hydroxy-[1,1-biphenyl]-2-yl)ethyl)piperidin-4-yl)-1-(4-(2-(methylthio)benzyl)piperazin-1-yl)ethan-1-one] | S (EC99≤12.5 μM) | S (EC99≤12.5 μM) | S (EC99≤12.5 μM) | A (12.5 μM<EC99≤25 μM) | B (25 μM<EC99≤100 μM)
7 | CCSc1cc(F)ccc1CN1CCN(C(=O)[C@H](N)C2CCN(CCc3cc(Cl)ccc3-c3cccc(O)c3)CC2)CC1 [Example 593, Hydrochloride of (R)-2-amino-2-(1-(2-(4-chloro-3′-hydroxy-[1,1-biphenyl]-2-yl)ethyl)piperidin-4-yl)-1-(4-(2-(ethylthio)-4-fluorobenzyl)piperazin-1-yl) ethan-1-one] | B (25 μM<EC99≤100 μM) | A (12.5 μM<EC99≤25 μM) | A (12.5 μM<EC99≤25 μM) | S (EC99≤12.5 μM) | B (25 μM<EC99≤100 μM)
8 | CCSc1cc(F)ccc1CN1CCN(C(=O)[C@H](N)C2CCN(CCc3cc(Cl)ccc3-c3ccccc3O)CC2)CC1 [Example 594, Hydrochloride of (R)-2-amino-2-(1-(2-(4-chloro-2′-hydroxy-[1,1-biphenyl]-2-yl)ethyl)piperidin-4-yl)-1-(4-(2-(ethylthio)-4-fluorobenzyl)piperazin-1-yl) ethan-1-one] | S (EC99≤12.5 μM) | A (12.5 μM<EC99≤25 μM) | S (EC99≤12.5 μM) | S (EC99≤12.5 μM) | A (12.5 μM<EC99≤25 μM)
9 | CCOc1cccc(F)c1CN1CCN(C(=O)[C@H](N)C2CCN(CCc3cc(Cl)ccc3-c3cccc(O)c3F)CC2)CC1 [Example 595, Hydrochloride of (R)-2-amino-2-(1-(2-(4-chloro-2-fluoro-3′-hydroxy-[1,1-biphenyl]-2-yl)ethyl)piperidin-4-yl)-1-(4-(2-ethoxy-6-fluorobenzyl)piperazin-1-yl)ethan-1-one] | S (EC99≤12.5 μM) | S (EC99≤12.5 μM) | S (EC99≤12.5 μM) | S (EC99≤12.5 μM) | A (12.5 μM<EC99≤25 μM)
10 | CCOc1cccc(F)c1CN1CCN(C(=O)[C@H](N)C2CCN(CCc3cc(O)ccc3-c3ccccc3)CC2)CC1 [Example 596, Hydrochloride of (R)-2-amino-1-(4-(2-ethoxy-6-fluorobenzyl)piperazin-1-yl)-2-(1-(2-(4-hydroxy-[1,1′-biphenyl]-2-yl)ethyl)piperidin-4-yl)ethan-1-one] | C (100 μM<EC99) | B (25 μM<EC99≤100 μM) | B (25 μM<EC99≤100 μM) | S (EC99≤12.5 μM) | A (12.5 μM<EC99≤25 μM)
11 | CCSc1cc(F)ccc1CN1CCN(C(=O)[C@H](N)C2CCN(CCc3cc(Cl)ccc3C3=CCNCC3)CC2)CC1 [Example 597, hydrochloride of (R)-2-amino-2-(1-(5-chloro-2-(1,2,3,6-tetrahydropyridin-4-yl)phenethyl)piperidin-4-yl)-1-(4-(2-(ethylthio)-4-fluorobenzyl)piperazin-1-yl)ethan-1-one] | B (25 μM<EC99≤100 μM) | S (EC99≤12.5 μM) | S (EC99≤12.5 μM) | S (EC99≤12.5 μM) | S (EC99≤12.5 μM)
12 | CCSc1cc(F)ccc1CN1CCN(C(=O)[C@H](N)C2CCN(CCc3cc(Cl)ccc3-c3ccccc3F)CC2)CC1 [Example 598, Hydrochloride of (R)-2-amino-2-(1-(2-(4-chloro-2′-fluoro-[1,1-biphenyl]-2-yl)ethyl)piperidin-4-yl)-1-(4-(2-(ethylthio)-4-fluorobenzyl)piperazin-1-yl) ethan-1-one] | S (EC99≤12.5 μM) | S (EC99≤12.5 μM) | S (EC99≤12.5 μM) | A (12.5 μM<EC99≤25 μM) | S (EC99≤12.5 μM)
13 | CSc1ccccc1CN1CCN(C(=O)[C@H](N)C2CCN(CCc3cc(Cl)ccc3-c3cccc(N)c3)CC2)CC1 [Example 600, Hydrochloride of (R)-2-amino-2-(1-(2-(3′-amino-4-chloro-[1,1-biphenyl]-2-yl)ethyl)piperidin-4-yl)-1-(4-(2-(methylthio)benzyl)piperazin-1-yl)ethan-1-one] | S (EC99≤12.5 μM) | S (EC99≤12.5 μM) | S (EC99≤12.5 μM) | A (12.5 μM<EC99≤25 μM) | A (12.5 μM<EC99≤25 μM)
14 | CSc1ccccc1CN1CCN(C(=O)[C@H](N)C2CCN(CCc3cc(Cl)ccc3-c3ccccc3F)CC2)CC1 [Example 601, Hydrochloride of (R)-2-amino-2-(1-(2-(4-chloro-2′-fluoro-[1,1-biphenyl]-2-yl)ethyl)piperidin-4-yl)-1-(4-(2-(methylthio)benzyl)piperazin-1-yl) ethan-1-one] | A (12.5 μM<EC99≤25 μM) | A (12.5 μM<EC99≤25 μM) | A (12.5 μM<EC99≤25 μM) | B (25 μM<EC99≤100 μM) | B (25 μM<EC99≤100 μM)
